Patent publication US11246907B2, “Immunosuppressive agents and their use in therapy” (Norwegian University of Science and Technology, priority 2013, dated 2022)
Ends that are not written are not given here.

Columns and labels:
[1] = system: Akt Ser473 phosphorylation; assay: Western blot of Akt Ser473 phosphorylation in HaCaT cells; assay type: cell-based, human; conditions: 12 μM, 4 h; unstimulated and 2 μg/ml polyIC
Description: (§1) Protein levels were corrected for loading differences (β-tubulin) and normalized to untreated control cells. […] Bar, 5 μm.
(§2) The multiple myeloma cell lines JJN-3 (gift from J. Ball, University of Birmingham, United Kingdom) were grown in RPMI 1640 (Sigma-Aldrich, Schnelldorf, Germany) supplemented with 10% FCS, 2 mM glutamine (Sigma-Aldrich), 2.5 μg/ml amphotericin B (Sigma-Aldrich) and 100 μg/ml gentamicin (Invitrogen, Carlsbad, Calif., USA). HaCaT cells (spontaneously transformed keratinocytes) were cultured in DMEM (Sigma-Aldrich) containing FCS, glutamine, amphotericin B, and gentamicin. All cells were cultured at 37° C. in a humidified atmosphere of 5% CO2.
(§3) Mononucleated cells were seeded and stimulated as described above. JJN-3 cells were treated with ATX-101 (6 μM) for 4 h. HaCaT cells were treated with ATX-101 (12 μM), polylC (2 μg/ml), and LPS (100 ng/ml) for 4 h. […] The proteins were visualized with the Odyssey infrared imaging system (LI-COR) and quantified using Odyssey Image Studio V2. […]

PACT = assay: Western blot of PACT protein levels in HaCaT cells; assay type: cell-based, human; conditions: 12 μM ATX-101 + 2 μg/ml polyIC, 4 h
Description: as §1, §2, §3

PCNA = PCNA (Homo sapiens, UniProt P12004); assay: Microscale thermophoresis (MST) of peptide interaction with PCNA; assay type: binding
Description: Microscale thermophoresis (MST) was used to determine the dissociation constant for various APIM containing peptides.
PCNA was labeled with a fluorescent molecule. The concentration of PCNA was kept constant, whereas dilutions of each APIM containing peptide were prepared (1:1).

Chain of PCNA (P12004 whole entry): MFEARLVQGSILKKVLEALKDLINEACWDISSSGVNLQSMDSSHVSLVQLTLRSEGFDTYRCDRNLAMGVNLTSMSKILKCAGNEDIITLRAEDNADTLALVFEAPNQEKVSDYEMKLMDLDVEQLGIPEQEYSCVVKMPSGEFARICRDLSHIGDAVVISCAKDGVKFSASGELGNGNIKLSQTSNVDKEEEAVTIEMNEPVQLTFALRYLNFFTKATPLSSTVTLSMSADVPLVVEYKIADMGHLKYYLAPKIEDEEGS

In the case of Ac-MDRWLVKWKKKRKIRRRRRRRRRRR [ATX-101], the “Akt phosphorylation in HaCaT cells” value [1] was “reduced Akt phosphorylation in unstimulated and stimulated cells”, the “PACT protein level, polyIC-stimulated HaCaT cells” value (PACT) was “further reduced the protein level of PACT” and the “interaction with PCNA by MST (in words)” value (PCNA) was “stronger interactions with PCNA than ATX-A”.
